Key:
Format in all cases: in vivo
[1] = system: Diabrotica Balteata (Corn Root Worm); assay: Diabrotica balteata (corn root worm) mortality on sprayed maize sprouts; settings: 96 h, application rate 200 ppm, L2 larvae, assessed 4 days after infestation
Procedure: Diabrotica Balteata (Corn Root Worm)
Maize sprouts placed onto an agar layer in 24-well microtiter plates were treated with aqueous test solutions prepared from 10 ′000 ppm DMSO stock solutions by spraying. After drying, the plates were infested with L2 larvae (6 to 10 per well). The samples were assessed for mortality 4 days after infestation.

[2] = system: Thrips Tabaci (Onion Thrips); assay: Thrips tabaci (onion thrips) feeding/contact activity; settings: foliar, 144 h, application rate 200 ppm, sunflower leaf discs sprayed, thrips population of mixed ages, assessed 6 days after infestation
Procedure: Thrips Tabaci (Onion Thrips) Feeding/Contact Activity
Sunflower leaf discs were placed on agar in 24-well microtiter plates and sprayed with aqueous test solutions prepared from 10 ′000 ppm DMSO stock solutions. After drying the leaf discs were infested with a thrips population of mixed ages. The samples were assessed for mortality 6 days after infestation.

[3] = system: Tetranychus Urticae (Two-Spotted Spider Mite); assay: Tetranychus urticae (two-spotted spider mite) feeding/contact activity; settings: foliar, 192 h, application rate 200 ppm, bean leaf discs sprayed, mite population of mixed ages, assessed 8 days after infestation, read-out: mortality on mixed population (mobile stages)
Procedure: Tetranychus Urticae (Two-Spotted Spider Mite) Feeding/Contact Activity
Bean leaf discs on agar in 24-well microtiter plates were sprayed with aqueous test solutions prepared from 10 ′000 ppm DMSO stock solutions. After drying the leaf discs were infested with a mite population of mixed ages. The samples were assessed for mortality on mixed population (mobile stages) 8 days after infestation.

[4] = system: Myzus Persicae (Green Peach Aphid); assay: Myzus persicae (green peach aphid) feeding/contact activity; settings: foliar, 144 h, application rate 200 ppm, sunflower leaf discs sprayed, aphid population of mixed ages, assessed 6 days after infestation
Procedure: Myzus Persicae (Green Peach Aphid) Feeding/Contact Activity
Sunflower leaf discs were placed onto agar in a 24-well microtiter plate and sprayed with aqueous test solutions prepared from 10 ′000 ppm DMSO stock solutions. After drying, the leaf discs were infested with an aphid population of mixed ages. The samples were assessed for mortality 6 days after infestation.

[5] = system: Plutella Xylostella (Diamond Back Moth); assay: Plutella xylostella (diamond back moth) feeding/contact activity; settings: 120 h, application rate 200 ppm, artificial diet treated by pipetting, L2 larvae, assessed 5 days after infestation
Procedure: Plutella Xylostella (Diamond Back Moth) Feeding/Contact Activity
24-well microtiter plates with artificial diet were treated with aqueous test solutions prepared from 10 ′000 ppm DMSO stock solutions by pipetting. After drying, the plates were infested with L2 larvae (10 to 15 per well). The samples were assessed for mortality 5 days after infestation.

[6] = system: Euschistus Heros (Neotropical BROWN Stink Bug); assay: Euschistus heros (neotropical brown stink bug) feeding/contact activity; settings: 120 h, application rate 200 ppm, soybean leaves sprayed, N2 nymphs, assessed 5 days after infestation
Procedure: Euschistus Heros (Neotropical BROWN Stink Bug) Feeding/Contact Activity
Soybean leaves on agar in 24-well microtiter plates were sprayed with aqueous test solutions prepared from 10 ′000 ppm DMSO stock solutions. After drying the leaves were infested with N2 nymphs. The samples were assessed for mortality 5 days after infestation.

[7] = system: Spodoptera Littoralis (Egyptian Cotton Leaf Worm); assay: Spodoptera littoralis (Egyptian cotton leaf worm) feeding/contact activity; settings: foliar, 72 h, application rate 200 ppm, cotton leaf discs sprayed, L1 larvae, assessed 3 days after infestation
Procedure: Spodoptera Littoralis (Egyptian Cotton Leaf Worm) Feeding/Contact Activity
Cotton leaf discs were placed onto agar in 24-well microtiter plates and sprayed with aqueous test solutions prepared from 10 ′000 ppm DMSO stock solutions. After drying the leaf discs were infested with five L1 larvae. The samples were assessed for mortality 3 days after infestation.

Measured: mortality at 200 ppm

N#Cc1sc(-c2cnn(-c3c(Cl)cc(C(F)(C(F)(F)F)C(F)(F)F)cc3Cl)c2)cc1C(=O)NC1CC1 [Example 1, 2-cyano-N-cyclopropyl-5-[1-[2,6-dichloro-4-[1,2,2,2-tetrafluoro-1-(trifluoromethyl)ethyl]phenyl]pyrazol-4-yl]thiophene-3-carboxamide]
≥ 80%: all assays above

— patent US20230148600A1, “PESTICIDALLY ACTIVE THIOPHENE DERIVATIVES” (SYNGENTA PARTICIPATIONS AG, priority 2017, published 2023)
